According to publication PMC11085872, “Structure-Based Design of Novel Thiazolone[3,2-a]pyrimidine Derivatives as Potent RNase H Inhibitors for HIV Therapy” (Molecules, 2024):

What was measured:
[1] = target: T1, HIV-1 RT-associated RNase H (Human immunodeficiency virus type 1 group M subtype B, UniProt P03366); test: RNase H polymerase-independent cleavage assay; type: biochemical; conditions: for IC50: IC50, compound concentration required to reduce HIV-1 RT-associated RNase H activity by 50%, recombinant HIV-1 wt RT, hybrid RNA/DNA substrate, 37 °C, 1 hour
T1 construct: His-tagged p66/p51 HIV-1 RT group M subtype B; His tag; made in house; host or cells: Escherichia coli strain M15 (plasmid p6HRT-prot)
Experimental: The Ar^1 and Ar^2 aromatic segments of the molecule also approach the protein surface, through hydrophobic interactions. These findings provide important information for further structural optimization. All these newly designed thiazolone[3,2-a]pyrimidine derivatives were evaluated for their inhibitory activity against HIV RT-associated RNase H, using the diketo acid RDS1643 as positive control. […] The decrease in activity observed in compounds containing a sulfonic acid group might be attributed to the excessively strong acidity of the sulfonic acid group, which could protonate the diazo group within the molecule. […] When Ar^2 was changed from a phenyl group to a naphthyl group, the activity of compound 10f gained a great improvement over that of compound 10k. […] And when a negatively charged polar group was present at the 2-position of Ar^2, the inhibitory activity is enhanced. […]
3. Biology Experimental section
3.1 Expression and purification of recombinant HIV-1 RTs.
His-tagged p66/p51 HIV-1 RT group M subtype B coded in a p6HRT-prot plasmid was expressed in the Escherichia coli strain M15.1 Heterodimeric RTs were expressed essentially and purified as described.2 E. coli cells harboring the expression vector were cultured until reaching an optical density at 600 nm of 0.7. Induction of protein expression was achieved by treating the cells with 1.7 mM isopropyl β-D-1-thiogalactopyranoside (IPTG) for a duration of 4 hours. The subsequent purification of the protein was performed using a BioLogic LP system (BioRad) employing a combination of immobilized metal affinity chromatography and ion exchange […]
To initiate the purification process, the cell pellets were resuspended in lysis buffer at a ratio of 1:2 (cell pellet volume: lysis buffer volume). The lysis buffer used consisted of 50 mM sodium phosphate buffer with a pH of 7.8, supplemented with 0.5 mg/ml lysozyme. The resuspended cells were incubated on ice for 20 minutes. Following this, NaCl was added to achieve a final concentration of 0.3 M. The cells were then subjected to sonication, with four cycles of 60 seconds each, alternating between one second on and one second off. Subsequently, the cell lysate was centrifuged at 30, 000×g for 1 […]
The supernatant obtained from the centrifugation step was loaded onto a Ni2+-NTA-Sepharose column that had been pre-equilibrated with a loading buffer consisting of 50 mM sodium phosphate buffer (pH 7.8), 0.3 M NaCl, 10% glycerol, and 10 mM imidazole. The column was washed with a buffer containing 50 mM sodium phosphate buffer (pH 6.0), 0.3 M NaCl, 10% glycerol, and 80 mM imidazole. The target protein, RT, was eluted using an imidazole gradient ranging from 0.08 M to 0.5 M in the wash buffer. Fractions containing the enzyme were collected and combined, and then diluted 1:1 with 50 mM sodium phosphate buffer (pH 7.0) containing 10% glycerol. The diluted protein sample was loaded onto a Hi-trap heparin HP column that had been pre-equilibrated with 10 column volumes of a loading buffer consisting of 50 mM sodium phosphate buffer (pH 7.0), 10% glycerol, and 150 mM NaCl. The column was washed with the loading buffer, and the RT enzyme was eluted using Elute Buffer 2, which
(1 picture or pasted object on this page, not shown here) […]
comprised 50 mM sodium phosphate buffer (pH 7.0), 10% glycerol, and 1 M NaCl.
The eluted fractions containing the purified protein were collected, and the protein was subsequently dialyzed and stored in a buffer composed of 50 mM Tris-HCl (pH 7.0), 25 mM NaCl, 1 mM EDTA, and 50% glycerol. The catalytic activities of the purified protein samples were determined, and aliquots were stored at -80 °C for further use.
3.2 RNase H Polymerase-Independent Cleavage Assay
The HIV-1 RT-associated RNase H activity was measured as described.3 In summary, the reaction was performed in a black 96-well plate with a total volume of 100 μL. The reaction mix consisted of 50 mM Tris HCl (pH 7.8), 6 mM MgCl2, 1 mM dithiothreitol […]

SMILES	IC50 [1] [µM]	melting point [°C]	remaining activity at 100 µM ([1]; read-out: Percentage of the control activity measured at the indicated compound concentration) [%]
COC(=O)C1=C(C)N=C2SC(=NNc3ccccc3C(=O)OC)C(=O)N2C1c1ccc(OC)c(OC)c1OC (stereo not shown) [Compound 11h, Methyl 2-(2-(2-(methoxycarbonyl)phenyl)hydrazineylidene)-7-methyl-3-oxo-5-(2,3,4-trimethoxyphenyl)-2,3-dihydro-5H-thiazolo[3,2-a]pyrimidine-6-carboxylate]	10 ± 0.95	200 to 202	–
COC(=O)C1=C(C)N=C2SC(=NNc3ccccc3C(C)=O)C(=O)N2C1c1ccc(OC)c(OC)c1OC (stereo not shown) [Compound 11i, Methyl 2-(2-(2-acetylphenyl)hydrazineylidene)-7-methyl-3-oxo-5-(2,3,4-trimethoxyphenyl)-2,3-dihydro-5H-thiazolo[3,2-a]pyrimidine-6-carboxylate]	> 100	205 to 208	100
COC(=O)C1=C(C)N=C2SC(=NNc3cccc(C(=O)OC)c3)C(=O)N2C1c1ccc(OC)c(OC)c1OC (stereo not shown) [Compound 11j, Methyl 2-(2-(3-(methoxycarbonyl)phenyl)hydrazineylidene)-7-methyl-3-oxo-5-(2,3,4-trimethoxyphenyl)-2,3-dihydro-5H-thiazolo[3,2-a]pyrimidine-6-carboxylate]	42.1 ± 9.78	213 to 215	–
COC(=O)C1=C(C)N=C2SC(=NNc3cccc(C(C)=O)c3)C(=O)N2C1c1ccc(OC)c(OC)c1OC (stereo not shown) [Compound 11k, Methyl 2-(2-(3-acetylphenyl)hydrazineylidene)-7-methyl-3-oxo-5-(2,3,4-trimethoxyphenyl)-2,3-dihydro-5H-thiazolo[3,2-a]pyrimidine-6-carboxylate]	22 ± 0.36	216 to 219	–
COC(=O)C1=C(C)N=C2SC(=NNc3ccccc3C(C)=O)C(=O)N2C1c1ccc(OC)cc1 (stereo not shown) [Compound 12a, Methyl 2-(2-(2-acetylphenyl)hydrazineylidene)-5-(4-methoxyphenyl)-7-methyl-3-oxo-2,3-dihydro-5H-thiazolo[3,2-a]pyrimidine-6-carboxylate]	3.98 ± 0.3	199 to 201	–
COC(=O)C1=C(C)N=C2SC(=NNc3ccccc3C(=O)OC)C(=O)N2C1c1ccc(OC)cc1 (stereo not shown) [Compound 12b, Methyl 2-(2-(2-(methoxycarbonyl)phenyl)hydrazineylidene)-5-(4-methoxyphenyl)-7-methyl-3-oxo-2,3-dihydro-5H-thiazolo[3,2-a]pyrimidine-6-carboxylate]	2.97 ± 0.88	219 to 221	–
COC(=O)C1=C(C)N=C2SC(=NNc3cccc(C(=O)OC)c3)C(=O)N2C1c1ccc(OC)cc1 (stereo not shown) [Compound 12c, Methyl 2-(2-(3-(methoxycarbonyl)phenyl)hydrazineylidene)-5-(4-methoxyphenyl)-7-methyl-3-oxo-2,3-dihydro-5H-thiazolo[3,2-a]pyrimidine-6-carboxylate]	4.71 ± 0.86	209 to 211	–
COC(=O)C1=C(C)N=C2SC(=NNc3cc(OC)c(OC)c(OC)c3)C(=O)N2C1c1ccc(OC)cc1 (stereo not shown) [Compound 12e, Methyl 5-(4-methoxyphenyl)-7-methyl-3-oxo-2-(2-(3,4,5-trimethoxyphenyl)hydrazineylidene)-2,3-dihydro-5H-thiazolo[3,2-a]pyrimidine-6-carboxylate]	8.99 ± 0.27	204 to 206	–
COC(=O)C1=C(C)N=C2S/C(=N\Nc3ccc4ccccc4c3S(=O)(=O)O)C(=O)N2C1c1ccc(OC)cc1 (stereo not shown) [Compound 12f]	3.28	271 to 273	–
